Measurements: patent publication US12077503B2, “Substituted cyclic amides and their use as herbicides” (FMC CORPORATION, priority 2015, dated 2024)

Tests used:
Assay type in all cases: in vivo
[1] = tested on: Kochia (Kochia scoparia); assay: Test A preemergence; conditions: Bassia scoparia, pre-emergence, 240 h, 0 to 100 scale where 0 is no effect and 100 is complete control, read-out: Kochia plant response rating
In short: (§1)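 Seeded soil received test chemicals as a preemergence directed spray, and seedlings at one to two leaves, 2–10 cm tall, received them postemergence, in a non-phytotoxic, surfactant-containing solvent mixture. Pots were held in a greenhouse for approximately 10 d, then rated for injury from 0, no effect, to 100, complete control.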

[2] = tested on: barnyardgrass (Echinochloa crus-galli); assay: Test A preemergence; conditions: Echinochloa crus-galli, pre-emergence, 240 h, 0 to 100 scale where 0 is no effect and 100 is complete control, read-out: Barnyardgrass plant response rating
In short: as §1

[3] = tested on: giant foxtail (Setaria faberii); assay: Test A preemergence; conditions: Setaria faberi, pre-emergence, 240 h, 0 to 100 scale where 0 is no effect and 100 is complete control, read-out: Foxtail, Giant plant response rating
In short: as §1

[4] = tested on: pigweed (Amaranthus retroflexus); assay: Test A preemergence; conditions: Amaranthus retroflexus, pre-emergence, 240 h, 0 to 100 scale where 0 is no effect and 100 is complete control, read-out: Pigweed plant response rating
[5] = tested on: ragweed (common ragweed, Ambrosia elatior); assay: Test A preemergence; conditions: Ambrosia artemisiifolia, pre-emergence, 240 h, 0 to 100 scale where 0 is no effect and 100 is complete control, read-out: Ragweed plant response rating
In short: as §1

[6] = tested on: ryegrass, Italian (Italian ryegrass, Lolium multiflorum); assay: Test A preemergence; conditions: Lolium multiflorum, pre-emergence, 240 h, 0 to 100 scale where 0 is no effect and 100 is complete control, read-out: Ryegrass, Italian plant response rating
In short: as §1

[7] = tested on: Galium (catchweed bedstraw, Galium aparine); assay: Test A postemergence; conditions: Galium, post-emergence, 240 h
In short: as §1

[8] = tested on: Kochia (Kochia scoparia); assay: Test A postemergence; conditions: Bassia scoparia, post-emergence, 240 h
In short: as §1

[9] = tested on: barnyardgrass (Echinochloa crus-galli); assay: Test A postemergence; conditions: Echinochloa crus-galli, post-emergence, 240 h
In short: as §1

[10] = tested on: blackgrass (Alopecurus myosuroides); assay: Test A postemergence; conditions: Alopecurus myosuroides, post-emergence, 240 h
In short: as §1

[11] = tested on: corn (Zea mays); assay: Test A postemergence; conditions: Zea mays, post-emergence, 240 h
In short: as §1

[12] = tested on: giant foxtail (Setaria faberii); assay: Test A postemergence; conditions: Setaria faberi, post-emergence, 240 h
In short: as §1

[13] = tested on: pigweed (Amaranthus retroflexus); assay: Test A postemergence; conditions: Amaranthus retroflexus, post-emergence, 240 h
In short: as §1

[14] = tested on: ragweed (common ragweed, Ambrosia elatior); assay: Test A postemergence; conditions: Ambrosia artemisiifolia, post-emergence, 240 h
In short: as §1

[15] = tested on: ryegrass, Italian (Italian ryegrass, Lolium multiflorum); assay: Test A postemergence; conditions: Lolium multiflorum, post-emergence, 240 h
In short: as §1

[16] = tested on: wheat (Triticum aestivum); assay: Test A postemergence; conditions: Triticum aestivum, post-emergence, 240 h
In short: as §1

[17] = tested on: barnyardgrass (Echinochloa crus-galli); assay: Test B flooded paddy test; conditions: Echinochloa crus-galli, 250 g ai/ha, Flood; 0 to 100 scale where 0 is no effect and 100 is complete control; read-out: Barnyardgrass plant response rating
In short: (§2)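 Greenhouse paddy pots with 2-leaf stage plants received compound by direct addition to floodwater 3 cm deep, kept at that level. Scored visually at 13–15 d versus controls (0 no effect; 100 complete control).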

[18] = tested on: ducksalad (Heteranthera limosa); assay: Test B flooded paddy test; conditions: Heteranthera limosa, 250 g ai/ha, Flood; 0 to 100 scale where 0 is no effect and 100 is complete control; read-out: Ducksalad plant response rating
In short: as §2

[19] = tested on: rice (Oryra sativa); assay: Test B flooded paddy test; conditions: Oryza sativa, 250 g ai/ha, Flood; 0 to 100 scale where 0 is no effect and 100 is complete control; read-out: Rice plant response rating
In short: as §2

[20] = tested on: sedge, umbrella (small-flower umbrella sedge, Cyperus difformis); assay: Test B flooded paddy test; conditions: Cyperus difformis, 250 g ai/ha, Flood; 0 to 100 scale where 0 is no effect and 100 is complete control; read-out: Sedge, Umbrella plant response rating
In short: as §2

[21] = 125 g ai/ha, preemergence, approx. 10 d

`Cc1ccc([C@H]2CN(C)C(=O)[C@@H]2C(=O)Nc2cnccc2C)cc1` [Compound 1070] showed a pest or weed control at 31 g/ha ([1]; 31 g ai/ha, Preemergence) of 0%, a pest or weed control at 125 g/ha [1, 21] of 0% and a pest or weed control at 31 g/ha ([2]; 31 g ai/ha, Preemergence) of 0%. For the same compound, the pest or weed control at 125 g/ha [2, 21] was 0%, the pest or weed control at 31 g/ha ([3]; 31 g ai/ha, Preemergence) was 0% and the pest or weed control at 125 g/ha [3, 21] was 60%. For the same compound, the pest or weed control at 31 g/ha ([4]; 31 g ai/ha, Preemergence) was 0%, the pest or weed control at 125 g/ha [4, 21] was 0% and the pest or weed control at 31 g/ha ([5]; 31 g ai/ha, Preemergence) was 0%. The pest or weed control at 125 g/ha [5, 21] was 0%, the pest or weed control at 31 g/ha ([6]; 31 g ai/ha, Preemergence) was 0% and the pest or weed control at 125 g/ha [6, 21] was 0%. For the same compound, the pest or weed control at 125 g/ha ([7]; 125 g ai/ha, postemergence, visual injury on 0 to 100 scale (0 no effect, 100 complete control), approx. 10 d, read-out: Galium plant response rating) was 0%, the pest or weed control at 31 g/ha ([7]; Postemergence, 31 g ai/ha, visual injury after approx. 10 d, 0 to 100 scale, 0 no effect, 100 complete control, read-out: Plant response rating, Galium) was 0% and the pest or weed control at 125 g/ha ([8]; 125 g ai/ha, postemergence, visual injury on 0 to 100 scale (0 no effect, 100 complete control), approx. 10 d, read-out: Kochia plant response rating) was 0%. The pest or weed control at 31 g/ha ([8]; Postemergence, 31 g ai/ha, visual injury after approx. 10 d, 0 to 100 scale, 0 no effect, 100 complete control, read-out: Plant response rating, Kochia) was 0%, the pest or weed control at 125 g/ha ([9]; 125 g ai/ha, postemergence, visual injury on 0 to 100 scale (0 no effect, 100 complete control), approx. 10 d, read-out: Barnyardgrass plant response rating) was 0% and the pest or weed control at 31 g/ha ([9]; Postemergence, 31 g ai/ha, visual injury after approx. 10 d, 0 to 100 scale, 0 no effect, 100 complete control, read-out: Plant response rating, Barnyardgrass) was 0%. The pest or weed control at 125 g/ha ([10]; 125 g ai/ha, postemergence, visual injury on 0 to 100 scale (0 no effect, 100 complete control), approx. 10 d, read-out: Blackgrass plant response rating) was 0%, the pest or weed control at 31 g/ha ([10]; Postemergence, 31 g ai/ha, visual injury after approx. 10 d, 0 to 100 scale, 0 no effect, 100 complete control, read-out: Plant response rating, Blackgrass) was 0% and the plant injury at 125 g/ha ([11]; 125 g ai/ha, postemergence, visual injury on 0 to 100 scale (0 no effect, 100 complete control), approx. 10 d, read-out: Corn plant response rating) was 0%. It also gave a Corn plant response rating (crop injury, 0 = no effect, 100 = complete kill) at 31 g/ha ([11]; Postemergence, 31 g ai/ha, visual injury after approx. 10 d, 0 to 100 scale, 0 no effect, 100 complete control) of 0%, a pest or weed control at 125 g/ha ([12]; 125 g ai/ha, postemergence, visual injury on 0 to 100 scale (0 no effect, 100 complete control), approx. 10 d, read-out: Foxtail, Giant plant response rating) of 0% and a pest or weed control at 31 g/ha ([12]; Postemergence, 31 g ai/ha, visual injury after approx. 10 d, 0 to 100 scale, 0 no effect, 100 complete control, read-out: Plant response rating, Foxtail, Giant) of 0%. It also gave a pest or weed control at 125 g/ha ([13]; 125 g ai/ha, postemergence, visual injury on 0 to 100 scale (0 no effect, 100 complete control), approx. 10 d, read-out: Pigweed plant response rating) of 0%, a pest or weed control at 31 g/ha ([13]; Postemergence, 31 g ai/ha, visual injury after approx. 10 d, 0 to 100 scale, 0 no effect, 100 complete control, read-out: Plant response rating, Pigweed) of 0% and a pest or weed control at 125 g/ha ([14]; 125 g ai/ha, postemergence, visual injury on 0 to 100 scale (0 no effect, 100 complete control), approx. 10 d, read-out: Ragweed plant response rating) of 0%. It also gave a pest or weed control at 31 g/ha ([14]; Postemergence, 31 g ai/ha, visual injury after approx. 10 d, 0 to 100 scale, 0 no effect, 100 complete control, read-out: Plant response rating, Ragweed) of 0%, a pest or weed control at 125 g/ha ([15]; 125 g ai/ha, postemergence, visual injury on 0 to 100 scale (0 no effect, 100 complete control), approx. 10 d, read-out: Ryegrass, Italian plant response rating) of 0% and a pest or weed control at 31 g/ha ([15]; Postemergence, 31 g ai/ha, visual injury after approx. 10 d, 0 to 100 scale, 0 no effect, 100 complete control, read-out: Plant response rating, Ryegrass, Italian) of 0%. The plant injury at 125 g/ha ([16]; 125 g ai/ha, postemergence, visual injury on 0 to 100 scale (0 no effect, 100 complete control), approx. 10 d, read-out: Wheat plant response rating) was 0%, the plant injury at 31 g/ha ([16]; Postemergence, 31 g ai/ha, visual injury after approx. 10 d, 0 to 100 scale, 0 no effect, 100 complete control, read-out: Plant response rating, Wheat) was 0% and the pest or weed control at 250 g/ha [17] was 0%. It also gave a pest or weed control at 250 g/ha [18] of 80%, a pest or weed control at 250 g/ha [19] of 0% and a pest or weed control at 250 g/ha [20] of 0%.
